Kd data for 27 molecules are collected here from patent EP3074389B1, “QUINOLINE DERIVATIVES AS BROMODOMAIN INHIBITORS” (Gilead Sciences, Inc., priority 2013, dated 2015).

For one experiment, the target named is BRD4 domain 1 (Homo sapiens, UniProt O60885). Briefly: Kd determination of inhibitors binding to BRD4 domain 1 (Epic label-free platform). The following applies: direct binding to immobilized BRD4 domain 1; tripling dilution series from 20µM; about 1hr equilibrium; rounded to whole number; read-out: Epic Kd BRD41. On the procedure: (§1) Kd Determination of Inhibitors Binding to BRD4 Domain 1 and Domain 2
(§2) The binding of small molecule inhibitors to either BRD4 domain 1 or domain 2 were determined using the Epic, high-throughput, label-free platform (Corning, Lowell, MA). The Epic instrument incorporates an evanescent waveguide sensor within each well of its proprietary 384-well microplates. Direct binding of inhibitors to BRD4 immobilized onto the microplate well surface can be detected by exposing the waveguide to a broadband light source. The resulting resonant wavelength shift (measured in picometers (pm)) is proportional to the mass bound to the surface. Epic biochemical plates (Corning, Lowell, MA) were activated by adding 15 µL/well of 200 mM EDC and 50 mM Sulfo-NHS (Pierce Thermo Scientific, Rockford, IL) and incubated for 60 minutes at room temperature. Plates were washed three times with MilliQ water and dried by centrifugation (1 minute at 400 rpm). BRD4 immobilization was accomplished by resuspending the protein at a concentration of 150 µg/mL in 20 mM HEPES (pH 7) and adding 10 µL/well. […] Compound/inhibitor binding was determined by calculating difference between the baseline (first read) and second read. The resulting binding response was fitted to a single site binding isotherm in order to determine an equilibrium dissociation constant (Kd).

The next experiment has as its target BRD4 domain 2 (Homo sapiens, UniProt O60885). Description: Kd determination of inhibitors binding to BRD4 domain 2 (Epic label-free platform). The following applies: direct binding to immobilized BRD4 domain 2; tripling dilution series from 20µM; about 1hr equilibrium; rounded to whole number. The procedure: as §1, §2

In the case of `Cc1noc(C)c1-c1cc(S(=O)(=O)N[C@@H]2CCC[C@H]2C(=O)N2CCNCC2)c2cccnc2c1` [Compound 47, 7-(3,5-dimethylisoxazol-4-yl)-N-((1R,2R)-2-(piperazine-1-carbonyl)cyclopentyl) quinoline-5-sulfonamide], the Kd (commonly the concentration at which binding is half-saturated) on BRD4 domain 1 is 3160 nM; on BRD4 domain 2, 2270 nM.

For `Cc1noc(C)c1-c1cc(S(=O)(=O)NC2CCCC2)c2cc(NCCOCCO)c(=O)[nH]c2c1` [Compound 91, N-cyclopentyl-7-(3,5-dimethylisoxazol-4-yl)-3-((2-(2-hydroxyethoxy)ethyl)amino)-2-oxo-1,2-dihydroquinoline-5-sulfonamide], the Kd at BRD4 domain 1 was determined as 705 nM; on BRD4 domain 2, 473 nM.

Consider `Cc1noc(C)c1-c1cc(S(=O)(=O)NC2CCCC2)c2cccnc2c1Cl` [Compound 18, 8-chloro-N-cyclopentyl-7-(3,5-dimethylisoxazol-4-yl)quinoline-5-sulfonamide], for which the Kd at BRD4 domain 1 came to 9150 nM; on BRD4 domain 2, 4260 nM.

For the molecule `Cc1noc(C)c1-c1cc(S(=O)(=O)N[C@H](C)C(F)(F)F)c2cccnc2c1` [Compound 100, (R)-7-(3,5-dimethylisoxazol-4-trifluoropropan-2-yl)quinoline-5-sulfonamide], the dissociation constant Kd on BRD4 domain 1 was determined as 8950 nM; on BRD4 domain 2, 11400 nM.

Regarding `Cc1noc(C)c1-c1cc(S(=O)(=O)NC2CCCC2)c2ccc(NCC3CC3)nc2c1` [Compound 5, N-cyclopentyl-2-((cyclopropylmethyl)amino)-7-(3,5-dimethylisoxazol-4-yl)quinoline-5-sulfonamide], the figures for the dissociation constant (Kd) on BRD4 domain 1 and on BRD4 domain 2 were 1060 nM and 1460 nM, respectively.

Regarding `Cc1noc(C)c1-c1cc(S(=O)(=O)NC2CCCC2)c2cc(-c3ncccn3)c(=O)[nH]c2c1` [Compound 37, N-cyclopentyl-7-(3,5-dimethylisoxazol-4-yl)-2-oxo-3-(pyrimidin-2-yl)-1,2-dihydroquinoline-5-sulfonamide], the Kd stood at 2090 nM on BRD4 domain 1 and 757 nM on BRD4 domain 2.

With `Cc1noc(C)c1-c1cc(S(=O)(=O)N[C@@H]2CCC[C@@H]2c2ccc(F)cc2)c2cccnc2c1` [Compound 13, 7-(3,5-dimethylisoxazol-4-yl)-N-((1R,2R)-2-(4-fluorophenyl)cyclopentyl)quinoline-5-sulfonamide], the Kd on BRD4 domain 1 was 10000 nM; on BRD4 domain 2, 12400 nM.

In the case of `Cc1noc(C)c1-c1cc(S(=O)(=O)NC2CC2)c2ccc(N3CCNCC3)nc2c1` [Compound 80, N-cyclopropyl-7-(3,5-dimethylisoxazol-4-yl)-2-(piperazin-1-yl)quinoline-5-sulfonamide], the Kd on BRD4 domain 1 was 1730 nM; on BRD4 domain 2 it was 1390 nM.

With `Cc1noc(C)c1-c1cc(S(=O)(=O)NC2CCCC2)c2cc(NCCCN)c(=O)[nH]c2c1` [Compound 94, 3-((3-aminopropyl)amino)-N-cyclopentyl-7-(3,5-dimethylisoxazol-4-yl)-2-oxo-1,2-dihydroquinoline-5-sulfonamide], the values for the dissociation constant Kd at BRD4 domain 1 and on BRD4 domain 2 were 743 nM and 569 nM, respectively.

In the case of `Cc1noc(C)c1-c1cc(S(=O)(=O)NC2CCCC2)c2ccc(C(F)F)nc2c1` [Compound 2, N-cyclopentyl-2-(difluoromethyl)-7 - (3,5-dimethylisoxazol-4-yl)quinoline-5-sulfonamide], the Kd on BRD4 domain 1 stood at 3380 nM; at BRD4 domain 2, 1320 nM.

Turning to `Cc1noc(C)c1-c1cc(S(=O)(=O)NC2CCC(C)(C)C2)c2cccnc2c1` (stereo not drawn) [Compound 39, N-(3,3-dimethylcyclopentyl)-7-(3,5-dimethylisoxazol-4-yl)quinoline-5-sulfonamide], the equilibrium dissociation constant (Kd) on BRD4 domain 1 came out at 5560 nM; at BRD4 domain 2, 13400 nM.

For `Cc1noc(C)c1-c1cc(S(=O)(=O)NC2CCCC2)c2cc(N3CCN(C)CC3)c(=O)[nH]c2c1` [Compound 65, N-cyclopentyl-7-(3,5-dimethylisoxazol-4-yl)-3-(4-methylpiperazin-1-yl)-2-oxo-1,2-dihydroquinoline-5-sulfonamide], the Kd on BRD4 domain 1 was found to be 981 nM; on BRD4 domain 2, 546 nM.

As for `Cc1noc(C)c1-c1cc(S(=O)(=O)NC2CCCC2)c2cc(NC(C)(C)CO)c(=O)[nH]c2c1` [Compound 97, N-cyclopentyl-7-(3,5-dimethylisoxazol-4-yl)-3-((1-hydroxy-2-methylpropan-2-yl)amino)-2-oxo-1,2-dihydroquinoline-5-sulfonamide], the Kd turned out to be 936 nM on BRD4 domain 1 and 658 nM on BRD4 domain 2.

Take `Cc1noc(C)c1-c1cc(S(=O)(=O)N[C@H]2C[C@@H]3CC[C@H]2C3)c2cccnc2c1` [Compound 38, N-((1S,2S,4R)-bicyclo[2.2.1]heptan-2-yl)-7-(3,5-dimethylisoxazol-4-yl)quinoline-5-sulfonamide]: the dissociation constant (Kd) was determined as 3140 nM on BRD4 domain 1 and 3490 nM on BRD4 domain 2.

Regarding `Cc1noc(C)c1-c1cc(S(=O)(=O)N[C@@H]2CCC[C@@H]2C(=O)N2CCNCC2)c2cccnc2c1` [Compound 50, 7-(3,5-dimethylisoxazol-4-yl)-N-((1R,2S)-2-(piperazine-1-carbonyl)cyclopentyl) quinoline-5-sulfonamide], the figures for the Kd on BRD4 domain 1 and at BRD4 domain 2 were 7170 nM and 8130 nM, respectively.

On to `Cc1noc(C)c1-c1cc(S(=O)(=O)NC2CCCC2)c2cc(N)c(=O)[nH]c2c1` [Compound 41, 3-amino-N-cyclopentyl-7-(3,5-dimethylisoxazol-4-yl)-2-oxo-1,2-dihydroquinoline-5-sulfonamide], for which the Kd on BRD4 domain 1 amounted to 400 nM; at BRD4 domain 2, 450 nM.

Turning to `Cc1noc(C)c1-c1cc(S(=O)(=O)NC2CCCC2)c2ccc(N3CCNCC3)nc2c1` [Compound 44, N-cyclopentyl-7-(3,5-dimethylisoxazol-4-yl)-2-(piperazin-1-yl)quinoline-5-sulfonamide], the Kd on BRD4 domain 1 came out at 799 nM; on BRD4 domain 2, 504 nM.

Regarding `Cc1noc(C)c1-c1cc(S(=O)(=O)NC2CCCC2)c2cc(N3CCOCC3)c(=O)[nH]c2c1` [Compound 55, N-cyclopentyl-7-(3,5-dimethylisoxazol-4-yl)-3-morpholino-2-oxo-1,2-dihydroquinoline-5-sulfonamide], the dissociation constant (Kd) on BRD4 domain 1 amounted to 1340 nM; on BRD4 domain 2 it was 726 nM.

Regarding `Cc1noc(C)c1-c1cc(S(=O)(=O)NC2CCCC2)c2cc(NC3COC3)c(=O)[nH]c2c1` [Compound 96, N-cyclopentyl-7-(3,5-dimethylisoxazol-4-yl)-3-(oxetan-3-ylamino)-2-oxo-1,2-dihydroquinoline-5-sulfonamide], the equilibrium dissociation constant (Kd) on BRD4 domain 1 amounted to 467 nM; at BRD4 domain 2, 433 nM.

Turning to `Cc1noc(C)c1-c1cc(S(=O)(=O)NC2CCCC2)c2cc(NCCN)c(=O)[nH]c2c1` [Compound 78, 3-((2-aminoethyl)amino)-N-cyclopentyl-7-(3,5-dimethylisoxazol-4-yl)-2-oxo-1,2-dihydroquinoline-5-sulfonamide], the Kd worked out at 744 nM on BRD4 domain 1 and 392 nM at BRD4 domain 2.

Turning to `Cc1noc(C)c1-c1cc(S(=O)(=O)NC2CCCC2)c2ccc(N)nc2c1` [Compound 17, 2-amino-N-cyclopentyl-7-(3,5-dimethylisoxazol-4-yl)quinoline-5-sulfonamide], the results for the equilibrium dissociation constant (Kd) at BRD4 domain 1 and on BRD4 domain 2 were 885 nM and 1110 nM, respectively.

As to `COCCNc1cc2c(S(=O)(=O)N[C@@H]3CCC[C@H]3O)cc(-c3c(C)noc3C)cc2[nH]c1=O` [Compound 85, 7-(3,5-dimethylisoxazol-4-yl)-N-((1R,2R)-2-hydroxycyclopentyl)-3-((2-methoxyethyl)amino)-2-oxo-1,2-dihydroquinoline-5-sulfonamide], the values for the dissociation constant (Kd) on BRD4 domain 1 and at BRD4 domain 2 were 483 nM and 429 nM, respectively.

On to `Cc1noc(C)c1-c1cc(S(=O)(=O)NC2CCCC2)c2cc(NCCN(C)C)c(=O)[nH]c2c1` [Compound 88, N-cyclopentyl-3-((2-(dimethylamino)ethyl)amino)-7-(3,5-dimethylisoxazol-4-yl)-2-oxo-1,2-dihydroquinoline-5-sulfonamide], for which the Kd at BRD4 domain 1 came out at 1060 nM; on BRD4 domain 2, 943 nM.

In the case of `Cc1noc(C)c1-c1cc(S(=O)(=O)NC2CCCC2)c2cc(NCCN3CCOCC3)c(=O)[nH]c2c1` [Compound 90, N-cyclopentyl-7-(3,5-dimethylisoxazol-4-yl)-3-((2-morpholinoethyl)amino)-2-oxo-1,2-dihydroquinoline-5-sulfonamide], the Kd was 652 nM at BRD4 domain 1 and 560 nM on BRD4 domain 2.

On to `Cc1noc(C)c1-c1cc(S(=O)(=O)N[C@H]2CC[C@H](O)CC2)c2cccnc2c1` [Compound 21, 7-(3,5-dimethylisoxazol-4-yl)-N-((1r,4r)-4-hydroxycyclohexyl)qu inoline-5-sulfonamide], for which the Kd at BRD4 domain 1 worked out at 10400 nM; at BRD4 domain 2, 17300 nM.

As to `Cc1noc(C)c1-c1cc(S(=O)(=O)NC2CCCC2)c2cc(-c3ccc(F)cc3)c(=O)[nH]c2c1` [Compound 28, N-cyclopentyl-7-(3,5-dimethylisoxazol-4-yl)-3-(4-fluorophenyl)-2-oxo-1,2-dihydroquinoline-5-sulfonamide], the figures for the dissociation constant Kd on BRD4 domain 1 and on BRD4 domain 2 were 348 nM and 555 nM, respectively.

In the case of `Cc1noc(C)c1-c1cc(S(=O)(=O)NC2CCCC2)c2cc(NC(C)C)c(=O)[nH]c2c1` [Compound 77, N-cyclopentyl-7-(3,5-dimethylisoxazol-4-yl)-3-(isopropylamino)-2-oxo-1,2-dihydroquinoline-5-sulfonamide], the results for the dissociation constant (Kd) on BRD4 domain 1 and at BRD4 domain 2 were 896 nM and 610 nM, respectively.
